Patent US8629158B2, “Azabicycloalkane-indole and azabicycloalkane-pyrrolo-pyridine MCH-1 antagonists, methods of making, and use thereof” (Albany Molecular Research, Inc., priority 2009, dated 2014)
Structures can show the parent of a compound that is named as a salt.

molecular target: human MCH-1 receptor (Homo sapiens (Human), UniProt Q99705); assay: Binding Assay for Human Melanin-Concentrating Hormone (MCH-1) Receptor (radioligand displacement, CHO-K1 membranes); settings: @ 1 uM test compound; read-out: MCH-1 percent inhibition of control radioligand specific binding
Method: Evaluation of the affinity of compounds for the human MCH-1 receptor was accomplished using 4-(3,4,5-tritritiumbenzyloxy)-1-(1-(2-(pyrrolidin-1-yl)ethyl)-1H-indazol-5-yl)pyridin-2(1H)-one and membranes prepared from stable CHO-K1 cells expressing the human MCH1 receptor obtained from Euroscreen (Batch 1138). Cell membrane homogenates (8.92 μg protein) were incubated for 60 min at 25° C. with […] of the [^3H]-labeled compound in the absence or presence of the test compound in 50 mM Tris-HCl buffer, pH 7.4. Nonspecific binding was determined in the presence of 50 μM 1-(5-(4-cyanophenyl)bicyclo[3.1.0]hexan-2-yl)-3-(4-fluoro-3-(trifluoromethyl)phenyl)-1-(3-(4-methylpiperazin-1-yl)propyl)urea. Following incubation, the samples were filtered rapidly under vacuum through Skatron 11731 filters, pre-soaked in 0.5% polyethylenimine, and washed with ice-cold 50 mM Tris-HCl buffer, pH 7.4, (wash setting 9,9,0) using a Skatron cell harvester. The filters were counted for radioactivity in a liquid scintillation counter (Tri-Carb 2100TR, Packard) using a scintillation cocktail (Ultima Gold MV, Perkin Elmer).
The results are expressed as a percent inhibition of the control radioligand specific binding. The IC50 value (concentration causing a half-maximal inhibition of control specific binding) and Hill coefficient (nH) were determined by non-linear regression analysis of the competition curve using Hill equation curve fitting. The inhibition constant (Ki) was calculated from the Cheng Prusoff equation: (Ki=IC50/(1+(L/KD)), where L=concentration of radioligand in the assay, and KD=affinity of the radioligand for the receptor.

human MCH-1 receptor, sequence (Q99705 whole entry): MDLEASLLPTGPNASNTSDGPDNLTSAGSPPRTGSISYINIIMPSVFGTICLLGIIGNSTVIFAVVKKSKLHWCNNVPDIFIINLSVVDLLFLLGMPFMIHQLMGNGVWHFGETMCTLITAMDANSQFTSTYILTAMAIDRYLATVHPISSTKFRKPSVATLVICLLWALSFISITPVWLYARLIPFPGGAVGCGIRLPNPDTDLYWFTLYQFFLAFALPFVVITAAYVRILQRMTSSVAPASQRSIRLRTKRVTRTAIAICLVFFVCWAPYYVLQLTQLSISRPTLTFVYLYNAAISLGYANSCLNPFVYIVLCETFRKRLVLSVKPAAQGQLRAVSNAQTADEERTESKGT

| SMILES | inhibition at 1 µM |
| --- | --- |
| Cn1c2c(c3ccc(-n4ccc(-c5ccc(C(F)(F)F)nc5)cc4=O)cc31)C1CCC(C2)N1 (single isomer, unassigned; enantiomer a) [Example 37, 1-(5-Methyl-5,6,7,8,9,10-hexahydro-7,10-iminocyclohept[b]indol-3-yl)-4-(6-(trifluoromethyl)pyridin-3-yl)pyridin-2(1H)-one hydrochloride (Enantiomer A)] | 72% |
| Cn1c2c(c3ccc(N4CCN(CCc5ccccc5)CC4=O)cc31)C1CCC(C2)N1 (single isomer, unassigned; enantiomer a) [Example 34, 1-(5-Methyl-5,6,7,8,9,10-hexahydro-7,10-iminocyclohept[b]indol-3-yl)-4-phenethylpiperazin-2-one dihydrochloride (Enantiomer A)] | 68% |

same assay, conditions: MCH-1 Ki (nM), membranes from CHO-K1 cells expressing human MCH1 receptor; [3H]-labeled radioligand; Ki from IC50 by Cheng Prusoff

| SMILES | Ki |
| --- | --- |
| Cn1c2c(c3ccc(N4CCN(CCc5ccccc5)CC4=O)cc31)C1CCC(C2)N1 (single isomer, unassigned; enantiomer b) [Example 33, 1-(5-Methyl-5,6,7,8,9,10-hexahydro-7,10-iminocyclohept[b]indol-3-yl)-4-phenethylpiperazin-2-one dihydrochloride (Enantiomer B)] | 17 nM |
| Cn1c2c(c3ccc(-n4ccc(OCc5ccc(F)cn5)cc4=O)cc31)C1CCC(C2)N1 (single isomer, unassigned; enantiomer b) [Example 24, (−)-4-((5-Fluoropyridin-2-yl)methoxy)-1-(5-methyl-5,6,7,8,9,10-hexahydro-7,10-iminocyclohept[b]indol-3-yl)pyridin-2(1H)-one hydrochloride (Enantiomer B)] | 7.4 nM |
| CC(=O)N1C2CCC1c1c(n(C)c3cc(-n4ccc(OCc5ccc(F)cn5)cc4=O)ccc13)C2 (single isomer, unassigned; enantiomer a) [Example 29, 1-(11-Acetyl-5-methyl-5,6,7,8,9,10-hexahydro-7,10-iminocyclohept[b]indol-3-yl)-4-((5-Fluoropyridin-2-yl)methoxy)pyridin-2(1H)-one (Enantiomer A)] | 75 nM |
| Cn1c2c(c3ccc(-n4ccc(-c5ccc(C(F)(F)F)nc5)cc4=O)cc31)C1CCC(C2)N1 (single isomer, unassigned; enantiomer b) [Example 36, 1-(5-Methyl-5,6,7,8,9,10-hexahydro-7,10-iminocyclohept[b]indol-3-yl)-4-(6-(trifluoromethyl)pyridin-3-yl)pyridin-2(1H)-one hydrochloride (Enantiomer B)] | 5.3 nM |
| Cn1c2c(c3ccc(-n4ccc(OCc5ccccc5)cc4=O)cc31)C1CCC(C2)N1 (single isomer, unassigned; enantiomer a) [Example 14, 4-(Benzyloxy)-1-(5-methyl-5,6,7,8,9,10-hexahydro-7,10-iminocyclohept[b]indol-3-yl)pyridin-2(1H)-one hydrochloride (Enantiomer A)] | 15.8 nM |
| Cn1c2c(c3ccc(-n4ccc(OCc5ccc(F)cn5)cc4=O)cc31)C1CCC(C2)N1 (single isomer, unassigned; enantiomer a) [Example 25, (+)-4-((5-Fluoropyridin-2-yl)methoxy)-1-(5-methyl-5,6,7,8,9,10-hexahydro-7,10-iminocyclohept[b]indol-3-yl)pyridin-2(1H)-one hydrochloride (Enantiomer A)] | 19 nM |

same assay, conditions: membranes from CHO-K1 cells expressing human MCH1 receptor; [3H]-labeled radioligand; Ki from IC50 by Cheng Prusoff; read-out: MCH-1 Ki

| SMILES | Ki |
| --- | --- |
| Cn1c2c(c3ccc(-n4ccc(OCc5ccc(Cl)cc5Cl)cc4=O)nc31)C1CCC(C2)N1 (stereo not drawn) [Example 48, 4-(2,4-Dichlorobenzyloxy)-1-(10-methyl-5,6,7,8,9,10-hexahydro-5,8-iminocyclohepta[4,5]pyrrolo[2,3-b]pyridin-2-yl)pyridin-2(1H)-one hydrochloride] | 28 nM |
| Cn1c2c(c3ccc(-n4ccc(-c5ccc(C(F)(F)F)nc5)cc4=O)nc31)C1CCC(C2)N1 (stereo not drawn) [Example 44, 1-(10-Methyl-5,6,7,8,9,10-hexahydro-5,8-iminocyclohepta[4,5]pyrrolo[2,3-b]pyridin-2-yl)-4-(6-(trifluoromethyl)pyridin-3-yl)pyridin-2(1H)-one hydrochloride] | 110 nM |
| Cn1c2c(c3ccc(-n4ccc(OCc5ccc(F)cc5F)cc4=O)nc31)C1CCC(C2)N1 (stereo not drawn) [Example 45, 4-(2,4-Difluorobenzyloxy)-1-(10-methyl-5,6,7,8,9,10-hexahydro-5,8-iminocyclohepta[4,5]pyrrolo[2,3-b]pyridin-2-yl)pyridin-2(1H)-one hydrochloride] | 26 nM |
| Cn1c2c(c3ccc(-n4ccc(-c5cnc(C(F)(F)F)nc5)cc4=O)cc31)C1CCC(C2)N1 (stereo not drawn) [Example 7, 1-(5-Methyl-5,6,7,8,9,10-hexahydro-7,10-iminocyclohept[b]indol-3-yl)-4-(2-(trifluoromethyl)pyrimidin-5-yl)pyridin-2(1H)-one hydrochloride] | 68.1 nM |
| CN1C2CCC1c1c(n(C)c3nc(-n4ccc(OCc5ccccc5)cc4=O)ccc13)C2 (stereo not drawn) [Example 42, 4-(Benzyloxy)-1-(10,11-dimethyl-5,6,7,8,9,10-hexahydro-5,8-iminocyclohepta[4,5]pyrrolo[2,3-b]pyridin-2-yl)pyridin-2(1H)-one hydrochloride] | 27 nM |
| Cn1c2c(c3ccc(-n4ccc(OCc5ccc(F)cn5)cc4=O)cc31)C1CCCC(C2)N1 (stereo not drawn) [Example 11, 4-((5-Fluoropyridin-2-yl)methoxy)-1-(5-methyl-6,7,8,9,10,11-hexahydro-7,11-imino-5H-cyclooct[b]indol-3-yl)pyridin-2(1H)-one dihydrochloride] | 21.3 nM |
| Cn1c2c(c3ccc(-n4ccc(OCc5ccc(F)cn5)cc4=O)nc31)C1CCC(C2)N1 (stereo not drawn) [Example 43, 4-((5-Fluoropyridin-2-yl)methoxy)-1-(10-methyl-5,6,7,8,9,10-hexahydro-5,8-iminocyclohepta[4,5]pyrrolo[2,3-b]pyridin-2-yl)pyridin-2(1H)-one hydrochloride] | 38 nM |
| Cn1c2c(c3ccc(-n4ccc(-c5ccc(C(F)(F)F)cn5)cc4=O)cc31)C1CCC(C2)N1 (stereo not drawn) [Example 4, 1-(5-Methyl-5,6,7,8,9,10-hexahydro-7,10-iminocyclohept[b]indol-3-yl)-4-(5-(trifluoromethyl)pyridin-2-yl)pyridin-2(1H)-one dihydrochloride] | 16.1 nM |
| CC(C)N1C2CCC1c1c(n(C)c3cc(-n4ccc(OCc5ccccc5)cc4=O)ccc13)C2 (stereo not drawn) [Example 28, 4-(Benzyloxy)-1-(11-isopropyl-5-methyl-5,6,7,8,9,10-hexahydro-7,10-iminocyclohept[b]indol-3-yl)pyridin-2(1H)-one hydrochloride] | 12 nM |
| Cn1c2c(c3ccc(-n4ccc(-c5ccc(C(F)(F)F)nc5)cc4=O)cc31)C1CCC(C2)N1 (stereo not drawn) [Example 5, 1-(5-Methyl-5,6,7,8,9,10-hexahydro-7,10-iminocyclohept[b]indol-3-yl)-4-(6-(trifluoromethyl)pyridin-3-yl)pyridin-2(1H)-one dihydrochloride] | 6.5 nM |
| Cn1c2c(c3ccc(-n4ccc(OCc5ccccc5)cc4=O)cc31)C1CCCC(C2)N1 (stereo not drawn) [Example 12, 4-(Benzyloxy)-1-(5-methyl-6,7,8,9,10,11-hexahydro-7,11-imino-5H-cyclooct[b]indol-3-yl)pyridin-2(1H)-one hydrochloride] | 9.3 nM |
| Cc1ccc(-c2ccn(-c3ccc4c5c(n(C)c4c3)CC3CCC5N3)c(=O)c2)cn1 (single isomer, unassigned; enantiomer b) [Example 35, 1-(5-Methyl-5,6,7,8,9,10-hexahydro-7,10-iminocyclohept[b]indol-3-yl)-4-(6-methylpyridin-3-yl)-pyridin-2(1H)-one hydrochloride (Enantiomer B)] | 59 nM |
| Cn1c2c(c3ccc(-n4ccc(OCc5ccc(Cl)cc5F)cc4=O)nc31)C1CCC(C2)N1 (stereo not drawn) [Example 47, 4-(4-Chloro-2-fluorobenzyloxy)-1-(10-methyl-5,6,7,8,9,10-hexahydro-5,8-iminocyclohepta[4,5]pyrrolo[2,3-b]pyridin-2-yl)pyridin-2(1H)-one hydrochloride] | 14 nM |
| O=c1cc(OCc2ccc(F)cn2)ccn1-c1ccc2c3c([nH]c2c1)CC1CCC3N1 (stereo not drawn) [Example 9, 4-((5-Fluoropyridin-2-yl)methoxy)-1-(5,6,7,8,9,10-hexahydro-7,10-iminocyclohept[b]indol-3-yl)pyridin-2(1H)-one dihydrochloride] | 25.3 nM |
| CCN1C2CCCC1c1c(n(C)c3cc(-n4ccc(OCc5ccccc5)cc4=O)ccc13)C2 (stereo not drawn) [Example 32, 4-(Benzyloxy)-1-(12-ethyl-5-methyl-6,7,8,9,10,11-hexahydro-7,11-imino-5H-cyclooct[b]indol-3-yl)pyridin-2(1H)-one hydrochloride] | 15 nM |
| Cn1c2c(c3ccc(-n4ccc(-c5ccc(C(F)(F)F)cc5)cc4=O)nc31)C1CCC(C2)N1 (stereo not drawn) [Example 50, 1-(10-Methyl-5,6,7,8,9,10-hexahydro-5,8-iminocyclohepta[4,5]pyrrolo[2,3-b]pyridin-2-yl)-4-(4-(trifluoromethyl)phenyl)pyridin-2(1H)-one hydrochloride] | 19 nM |
